In patent US9981940B2, “Aryl sulfide derivatives and aryl sulfoxide derivatives as acaricides and insecticides” (BAYER CROPSCIENCE AKTIENGESELLSCHAFT, priority 2013, dated 2018):

How the values were obtained:
Tetranychus urticae = Tetranychus urticae spray test, OP-resistant (TETRUR); assay type: in vivo; conditions: application rate of 500 g/ha, after 6 days; for pest or weed control at 500 g/ha: Tetranychus urticae, 144 h, read-out: efficacy
Experimental: Tetranychus urticae—Spray Test, OP-Resistant (TETRUR)
• Solvent: 78.0 parts by weight of acetone • 1.5 parts by weight of dimethylformamide • Emulsifier: 0.5 part by weight of alkylaryl polyglycol ether
To produce an appropriate active ingredient formulation, 1 part by weight of active ingredient is mixed with the specified amounts of solvent and emulsifier, and the concentrate is diluted to the desired concentration with emulsifier-containing water.
Discs of bean leaves (Phaseolus vulgaris) infested by all stages of the greenhouse red spider mite (Tetranychus urticae) are sprayed with an active ingredient formulation of the desired concentration.
After 6 days, the efficacy in % is determined 100% means that all the spider mites have been killed; 0% means that none of the spider mites have been killed.

[1] = log P by HPLC (OECD Guideline 117), method [a] acidic range; assay type: physicochemical; conditions: for logP[a]: HPLC, method [a] acidic range; for chromatographic logP: reversed-phase C18 HPLC column, acidic range
Experimental: (§1) The log P values were determined analogously to OECD Guideline 117 (EC Directive 92/69/EEC) by HPLC (high-performance liquid chromatography) using reversed-phase columns (C 18), by the following methods:
[a] The LC-MS determination in the acidic range is effected at pH 2.7 with 0.1% aqueous formic acid and acetonitrile (contains 0.1% formic acid) as eluents; linear gradient from 10% acetonitrile to 95% acetonitrile.

[2] = log P by HPLC (OECD Guideline 117), method [b] neutral range; assay type: physicochemical; conditions: HPLC; for logP[b]: method [b] neutral range; for chromatographic logP: reversed-phase C18 HPLC column, neutral range, pH 7.8
Experimental: as §1
[b] The LC-MS determination in the neutral range is effected at pH 7.8 with 0.001 molar aqueous ammonium hydrogencarbonate solution and acetonitrile as eluents; linear gradient from 10% acetonitrile to 95% acetonitrile.

[3] = pH 2.7, HPLC method [a], read-out: logP[a]
[4] = pH 2.7, HPLC, pH 2.7, read-out: log P[a]

CCc1nn(-c2cc(SCC(F)(F)F)c(C)cc2F)c(=O)n1-c1cccnc1 [Example 348]
efficacy (Tetranychus urticae): 90% | logP[a] [1]: 2.91 | logP[b] [2]: 2.87

Cc1cc(F)c(-n2nc(C3CC3)n(C(C)C)c2=S)cc1SCC(F)(F)F [Example 498]
efficacy (Tetranychus urticae): 100% | logP[a] [1]: 4.24 | logP[b] [2]: 4.14

CC1=C(C)C(=O)N(c2cc(SCC(F)(F)F)c(C)cc2F)C1=O [Example 339, 1-{2-Fluoro-4-methyl-5-[(2,2,2-trifluoroethyl)sulphanyl]phenyl}-3,4-dimethyl-1H-pyrrole-2,5-dione]
pest or weed control at 500 g/ha (Tetranychus urticae): 90% | chromatographic logP [1, 3]: 3.6 | chromatographic logP [1, 4]: 3.6 | chromatographic logP [2]: 3.61

CCn1c(OC)nn(-c2cc(SCC(F)(F)F)c(C)cc2F)c1=O [Example 180]
efficacy (Tetranychus urticae): 100% | logP[a] [1]: 3.16 | logP[b] [2]: 3.10

CC=Cc1nn(-c2cc(SCC(F)(F)F)c(C)cc2F)c(=S)n1C1CC1 [Example 501]
efficacy (Tetranychus urticae): 90% | logP[a] [1]: 4.00 | logP[b] [2]: 3.94

CCCc1nn(-c2cc([S+]([O-])CC(F)(F)F)c(C)cc2F)c(=O)n1C1CC1 (racemic) [Example 80]
efficacy (Tetranychus urticae): 100% | logP[a] [1]: 2.56 | logP[b] [2]: 2.49

Cc1cc(F)c(-n2nc(Oc3ccccc3)n(C)c2=O)cc1SCC(F)(F)F [Example 158]
efficacy (Tetranychus urticae): 100% | logP[a] [1]: 3.70 | logP[b] [2]: 3.66

C=CCn1c(SC)nn(-c2cc(SCC(F)(F)F)c(C)cc2F)c1=O [Example 271]
efficacy (Tetranychus urticae): 100% | logP[a] [1]: 3.61 | logP[b] [2]: 3.58

Cc1cc(F)c(-n2nc(-c3ccncc3)oc2=O)cc1SCC(F)(F)F [Example 459]
efficacy (Tetranychus urticae): 90% | logP[a] [1]: 3.20 | logP[b] [2]: 3.20

Cc1cc(F)c(-n2nc(-c3cccc(F)c3)n(C3CC3)c2=O)cc1[S+]([O-])CC(F)(F)F (racemic) [Example 70]
efficacy (Tetranychus urticae): 90% | logP[a] [1]: 2.94 | logP[b] [2]: 2.87

CC1=CC(=O)N(c2cc(SCC(F)(F)F)c(C)cc2F)C1=O [Example 340]
efficacy (Tetranychus urticae): 90% | logP[a] [1]: 3.37 | logP[b] [2]: 3.39

Cc1cc(F)c(-n2nc([S+]([O-])CC3CC3)n(C)c2=O)cc1SCC(F)(F)F (centres unmarked) [Example 247]
efficacy (Tetranychus urticae): 100% | logP[a] [1]: 2.94 | logP[b] [2]: 2.85

CSc1nn(-c2cc([S+]([O-])CC(F)(F)F)c(C)cc2F)c(=O)n1C (centres unmarked) [Example 260]
efficacy (Tetranychus urticae): 100% | logP[a] [1]: 2.07 | logP[b] [2]: 2.03

COc1nn(-c2cc([S+]([O-])CC(F)(F)F)c(Cl)cc2Cl)c(=O)n1C (centres unmarked) [Example 97]
efficacy (Tetranychus urticae): 90% | logP[a] [1]: 2.26 | logP[b] [2]: 2.24

CC1=C(C)C(=O)N(c2cc([S+]([O-])CC(F)(F)F)c(C)cc2F)C1=O (centres unmarked) [Example 341]
efficacy (Tetranychus urticae): 90% | logP[a] [1]: 2.52 | logP[b] [2]: 2.49

COC1=CC(=O)N(c2ccc(Cl)c([S+]([O-])CC(F)(F)F)c2)C1 (racemic) [Example 315]
efficacy (Tetranychus urticae): 90% | logP[a] [1]: 2.24 | logP[b] [2]: 2.23

COc1nn(-c2cc([S+]([O-])CC(F)(F)F)c(C)cc2F)c(=O)n1CC1CC1 (centres unmarked) [Example 412]
efficacy (Tetranychus urticae): 100% | logP[a] [1]: 2.54 | logP[b] [2]: 2.52

CNn1cnn(-c2cc(SCC(F)(F)F)c(C)cc2F)c1=O [Example 203]
efficacy (Tetranychus urticae): 100% | logP[a] [1]: 2.32 | logP[b] [2]: 2.27

Cc1cc(F)c(-n2nc(-c3ccc(Cl)cc3)oc2=O)cc1SCC(F)(F)F [Example 458]
efficacy (Tetranychus urticae): 100% | logP[a] [1]: 4.85 | logP[b] [2]: 4.78

Cc1cc(F)c(-n2nc(C(C)(C)C)n(C3CC3)c2=O)cc1[S+]([O-])CC(F)(F)F (racemic) [Example 64]
efficacy (Tetranychus urticae): 100% | logP[a] [1]: 2.95 | logP[b] [2]: 2.97

Cc1cc(F)c(-n2nc(C(F)(F)F)n(C(C)(C)C)c2=O)cc1[S+]([O-])CC(F)(F)F (racemic) [Example 68]
efficacy (Tetranychus urticae): 100% | logP[a] [1]: 3.54 | logP[b] [2]: 3.49

CC[S+]([O-])c1nn(-c2cc(SCC(F)(F)F)c(C)cc2F)c(=O)n1C (centres unmarked) [Example 243, 5-(Ethylsulphinyl)-2-{2-fluoro-4-methyl-5-[(2,2,2-trifluoroethyl)sulphanyl]phenyl}-4-methyl-2,4-dihydro-3H-1,2,4-triazol-3-one]
pest or weed control at 500 g/ha (Tetranychus urticae): 100% | chromatographic logP [1, 3]: 2.55 | chromatographic logP [1, 4]: 2.55 | chromatographic logP [2]: 2.51

COc1nn(-c2cc(SCC(F)(F)F)c(F)cc2F)c(=O)n1C1CC1 [Example 171]
efficacy (Tetranychus urticae): 100% | logP[a] [1]: 2.97 | logP[b] [2]: 2.92

CCOc1nn(-c2cc([S+]([O-])CC(F)(F)F)c(C)cc2F)c(=O)n1C1CC1 (centres unmarked) [Example 121]
efficacy (Tetranychus urticae): 100% | logP[a] [1]: 2.47 | logP[b] [2]: 2.43

O=c1n(-c2ccc(C(F)(F)F)c(SCC(F)(F)F)c2)nc(OCC(F)(F)F)n1C1CC1 [Example 189]
efficacy (Tetranychus urticae): 100% | logP[a] [1]: 4.55 | logP[b] [2]: 4.48

Cc1cc(F)c(-n2nc(OCC(C)C)n(C)c2=O)cc1SCC(F)(F)F [Example 148]
efficacy (Tetranychus urticae): 90% | logP[a] [1]: 4.03 | logP[b] [2]: 3.92

C=CCOc1nn(-c2cc([S+]([O-])CC(F)(F)F)c(C)cc2F)c(=O)n1C1CC1 (centres unmarked) [Example 391]
efficacy (Tetranychus urticae): 100% | logP[a] [1]: 2.68 | logP[b] [2]: 2.65

COc1nn(-c2ccc(C(F)(F)F)c(SCC(F)(F)F)c2)c(=O)n1C1CC1 [Example 144]
efficacy (Tetranychus urticae): 90% | logP[a] [1]: 4.14 | logP[b] [2]: 3.85

COCCCn1c(OC)nn(-c2cc(SCC(F)(F)F)c(C)cc2F)c1=O [Example 388]
efficacy (Tetranychus urticae): 90% | logP[a] [1]: 3.16 | logP[b] [2]: 3.15

Cc1cc(F)c(-n2nc(OCC(C)(C)C)n(C3CC3)c2=O)cc1SCC(F)(F)F [Example 386]
efficacy (Tetranychus urticae): 100% | logP[a] [1]: 4.77 | logP[b] [2]: 4.71

CCOc1nn(-c2ccc(C)c(SCC(F)(F)F)c2)c(=O)n1C [Example 130]
efficacy (Tetranychus urticae): 90% | logP[a] [1]: 3.77 | logP[b] [2]: 3.74

Cc1cc(F)c(-n2nc(SCc3ccccc3)n(C)c2=O)cc1[S+]([O-])CC(F)(F)F (racemic) [Example 287]
efficacy (Tetranychus urticae): 100% | logP[a] [1]: 3.08 | logP[b] [2]: 3.02

CCSc1nn(-c2cc(SCC(F)(F)F)c(C)cc2F)c(=O)n1C1CC1 [Example 261]
efficacy (Tetranychus urticae): 100% | logP[a] [1]: 3.99 | logP[b] [2]: 4.03

CCc1nn(-c2cc(SCC(F)(F)F)c(C)cc2F)c(=O)n1C1CC1 [Example 77]
efficacy (Tetranychus urticae): 100% | logP[a] [1]: 3.24 | logP[b] [2]: 3.18

Cc1cc(F)c(-n2nc(C)n(N(C)C)c2=O)cc1[S+]([O-])CC(F)(F)F (centres unmarked) [Example 210]
efficacy (Tetranychus urticae): 100% | logP[a] [1]: 2.09 | logP[b] [2]: 2.09

Cc1cc(F)c(-n2nc(N(C)C)n(C3CC3)c2=O)cc1SCC(F)(F)F [Example 416]
efficacy (Tetranychus urticae): 90% | logP[a] [1]: 3.86 | logP[b] [2]: 3.80

Cc1cc(F)c(-n2nc(OCC3CC3)n(C)c2=O)cc1SCC(F)(F)F [Example 143]
efficacy (Tetranychus urticae): 90% | logP[a] [1]: 3.66 | logP[b] [2]: 3.58

Cc1cc(F)c(-n2nc([S+]([O-])CC(F)F)n(C3CC3)c2=O)cc1[S+]([O-])CC(F)(F)F (centres unmarked) [Example 229]
efficacy (Tetranychus urticae): 90% | logP[a] [1]: 2.10 | logP[b] [2]: 2.07

Cc1cc(F)c(-n2nc(OC(C)(C)C)n(C)c2=O)cc1[S+]([O-])CC(F)(F)F (centres unmarked) [Example 184]
efficacy (Tetranychus urticae): 100% | logP[a] [1]: 2.82 | logP[b] [2]: 2.76

COCc1nn(-c2cc(SCC(F)(F)F)c(C)cc2F)c(=O)o1 [Example 450]
efficacy (Tetranychus urticae): 100% | logP[a] [1]: 3.18 | logP[b] [2]: 3.15

Cc1cc(F)c(-n2nc(Oc3ccccc3)n(C)c2=O)cc1[S+]([O-])CC(F)(F)F (centres unmarked) [Example 159]
efficacy (Tetranychus urticae): 100% | logP[a] [1]: 2.70 | logP[b] [2]: 2.65

Cc1cc(F)c(-n2nc(-c3ccccc3)oc2=O)cc1SCC(F)(F)F [Example 457]
efficacy (Tetranychus urticae): 90% | logP[a] [1]: 4.35 | logP[b] [2]: 4.29

CCn1c(OCC(F)(F)F)nn(-c2cc(SCC(F)(F)F)c(C)cc2F)c1=O [Example 398]
efficacy (Tetranychus urticae): 100% | logP[a] [1]: 3.84 | logP[b] [2]: 3.79

CCOc1nn(-c2cc(SCC(F)(F)F)c(C)cc2F)c(=O)n1C1CC1 [Example 120]
efficacy (Tetranychus urticae): 100% | logP[a] [1]: 3.58 | logP[b] [2]: 3.44

Cc1cc(F)c(-n2nc(C3CC3)n(C)c2=O)cc1SCC(F)(F)F [Example 346]
efficacy (Tetranychus urticae): 90% | logP[a] [1]: 2.97 | logP[b] [2]: 2.92

Cc1cc(F)c(-n2nc(SCC(F)F)n(C3CC3)c2=O)cc1[S+]([O-])CC(F)(F)F (centres unmarked) [Example 256]
efficacy (Tetranychus urticae): 90% | logP[a] [1]: 2.73 | logP[b] [2]: 2.69
